Measurements reported in PMC9505425, “Targeting of the Mitochondrial TET1 Protein by Pyrrolo[3,2-b]pyrrole Chelators” (International Journal of Molecular Sciences, 2022).
Where “and” joins values, the source holds several entries; their conditions need not be identical. Identical values can stand only once.

Assays:
[1] = tested on: U-118 MG cells; test: MTT cytotoxicity assay, U-118 MG; assay type: cell-based, human; conditions: 48 h
Experimental: (§1) The effects of the tested compounds 1–6 on HF-P4, U-118 MG, H1299, BT-20, and Caov-3 cell lines were evaluated by the MTT assay during 48 h treatment (Table 2 and Tables S2–S31). In all tested compounds, we recognized a difference in cytotoxicity between healthy cells (HF-P4) and cancer cell lines (BT-20, Caov-3, and H-1299). […] In the case of ovarian cancer, the authors discovered oncogenic and poor prognosis roles of TET1 in epithelial ovarian carcinoma (EOC). TET1 is believed to demethylate the epigenome and activate numerous oncogenic pathways in EOC. The aforementioned study presents a new mechanism where TET1 contributes to tumor development through collaboration with CK2α [21]. The overexpression of the TET1 protein was also found in triple negative breast cancer and was associated with an activation of PI3K/mTOR pathway and decreased overall survival.
(§2) A human glioblastoma cell line (U118-MG) and a human non-small-cell lung carcinoma cell line (H1299) were used for the cytotoxicity assay (MTT). Both cell lines were generously supplied by Dr. M. Masařik, PhD, Department of Pathological physiology, Masaryk University, Czech Republic. U118-MG cells were cultivated under standard conditions in Dulbecco’s modified Eagle’s medium (ATCC, Manassas, VA, USA) supplemented with 10% FBS and streptomycin (100 μg/mL) at 37 °C at a 5% CO2 atmosphere. H1299 cells were cultivated under standard conditions in RPMI 1640 (BioTech, Prague, Czech Republic) medium supplemented with 10% FBS and streptomycin (100 μg/mL) at 37 °C at a 5% CO2 atmosphere.
(§3) For the cytotoxicity assay, we used the following cell lines: human glioblastoma cell line U118-MG, human mammary gland/breast cell line BT-20, human ovary adenocarcinoma cell line Caov-3, and non-small-cell lung carcinoma H-1299. As previously mentioned, these cell lines contain a high level of the TET1 protein, which corresponds to a lower overall survival. In addition to these cell cultures, we used the human dermal fibroblast cell line HF-P4 as a healthy control. Determination of cytotoxicity was performed using the MTT [3-(4,5-dimethylthiazol-2-yl)-2,5-diphenyltetrazolium bromide] colorimetric assay. Viable cells from each cell line were cultured in 96-well plates (VWR, Stříbrná Skalice, Czech Republic) at a density of 1.0 × 10^5 cells per well and allowed to grow for 24 h in 200 μL of recommended medium. After a 1-day incubation, the medium was replaced with solutions of compounds 1–6 at concentration ranges of 0.1–20 μM. Each concentration was measured four times within one test, and the entire test was repeated three times. Tested compounds 1–6 were dissolved in DMSO and then diluted with corresponding medium to a final volume of 200 μL (maximum 1% DMSO). After 48 h exposure, cells were treated with 175 μL of MTT solution (P-LAB, Prague, Czech Republic) for 2 h. In the next step, MTT solution was removed, and 125 μL of DMSO (Penta, Prague, Czech Republic) was added to solubilize dark crystals of formazan formed in intact cells, and absorbance was measured at 570 nm by the enzyme-linked immunoabsorbent assay reader Infinite® 200 PRO (Tecan, Männedorf, Switzerland). The final DMSO concentration was smaller than 1% (v/v). The absorbance of untreated cells was considered 100%, and IC50 values were calculated by the GraphPad Prism 8 software. As a parameter for cytotoxicity, we used a concentration that inhibits 50% of cell growth (IC50).

[2] = tested on: H-1299 cells; test: MTT cytotoxicity assay, H-1299; assay type: cell-based, human
Experimental: as §1, §2, §3

[3] = MTT cytotoxicity assay, HF-P4; assay type: cell-based, human; conditions: human, HF-P4 normal human dermal fibroblasts, repeats, read-out: Cell viability %
Experimental: as §1
(§4) A human dermal fibroblast cell line was used for intracellular localization and cytotoxicity assay (MTT). Human fibroblast cells HF-P4 (human fibroblasts—patient 4) are normal dermal fibroblasts, which were obtained from the residual skin of a healthy patient who underwent plastic surgery (with informed consent of the patient). HF-P4 cell lines were obtained from the Department of Plastic Surgery, Third Faculty of Medicine, Charles University and University Hospital Královské Vinohrady, Prague, Czech Republic, as described by Szabo et al., 2011, and Dvořánková et al., 2019 [88, 89], and have been processed in accordance with the relevant local ethics committee and the Declaration of Helsinki protection of patients’ rights and benefits with written and signed informed consent of each patient. Cells were cultivated under standard conditions in Dulbecco’s modified Eagle’s medium (ATCC, Manassas, VA, USA), supplemented with 10% FBS and streptomycin (100 μg/mL) at 37 °C at a 5% CO2 atmosphere.
as §3

[4] = tested on: HF-P4 cells; test: MTT cytotoxicity assay, HF-P4; assay type: cell-based, human; conditions: 48 h; for Cell viability %: repeats
Experimental: as §1, §4, §3

melting point: 306 to 307 °C
Compound: CCN(CC)c1ccc(/C=N/NC(=O)c2ccc(-c3cc4c(cc(-c5ccc(C(=O)N/N=C/c6ccc(N(CC)CC)cc6O)cc5)n4-c4ccc(C)cc4)n3-c3ccc(C)cc3)cc2)c(O)c1 [Compound 2]
viability at 0.1 µM ([1]; Homo sapiens, U-118-MG, U-118 MG, 100 nM, repeats, read-out: Cell viability %): 82.5%
viability at 0.5 µM ([1]; Homo sapiens, U-118-MG, U-118 MG, 500 nM, repeats, read-out: Cell viability %): 64%
viability at 0.75 µM ([1]; Homo sapiens, U-118-MG, U-118 MG, 750 nM, repeats, read-out: Cell viability %): 70%
viability at 1 µM ([1]; Homo sapiens, U-118-MG, U-118 MG, 1 uM, repeats, read-out: Cell viability %): 84.1%
viability at 2.5 µM ([1]; Homo sapiens, U-118-MG, U-118 MG, 2.5 uM, repeats, read-out: Cell viability %): 70.7%
viability at 5 µM ([1]; Homo sapiens, U-118-MG, U-118 MG, 5 uM, repeats, read-out: Cell viability %): 62.1%
viability at 7.5 µM ([1]; Homo sapiens, U-118-MG, U-118 MG, 7.5 uM, repeats, read-out: Cell viability %): 66.3%
viability at 10 µM ([1]; Homo sapiens, U-118-MG, U-118 MG, 10 uM, repeats, read-out: Cell viability %): 57.9%
viability at 15 µM ([1]; Homo sapiens, U-118-MG, U-118 MG, 15 uM, repeats, read-out: Cell viability %): 51.1%
viability at 20 µM ([1]; Homo sapiens, U-118-MG, U-118 MG, 20 uM, repeats, read-out: Cell viability %): 39.1%
IC50 ([1]; Homo sapiens, U-118-MG, MTT): > 20 µM
Cell viability % ([1]; U-118 MG, 100 nM, repeats, 0.1 µM): 87.05%
Cell viability % ([1]; U-118 MG, 500 nM, repeats, 0.5 µM): 68.29% and 66.76%
Cell viability % ([1]; U-118 MG, 750 nM, repeats, 0.75 µM): 77.02% and 67.38%
Cell viability % ([1]; U-118 MG, 1 uM, repeats): 82.08% and 80.29%
Cell viability % ([1]; U-118 MG, 2.5 uM, repeats): 64.2773% and 70.34%
Cell viability % ([1]; U-118 MG, 5 uM, repeats): 65.5% and 62.23%
Cell viability % ([1]; U-118 MG, 7.5 uM, repeats): 62.32% and 65.79%
Cell viability % ([1]; U-118 MG, 10 uM, repeats): 65.41% and 61.07%
Cell viability % ([1]; U-118 MG, 15 uM, repeats): 55.67% and 56.45%
Cell viability % ([1]; U-118 MG, 20 uM, repeats): 44.6621% and 48.66%
Cell viability % ([2]; H-1299, 100 nM, 48 h, repeats, 0.1 µM): 61.37% and 71.3%
Cell viability % ([2]; H-1299, 500 nM, 48 h, repeats, 0.5 µM): 66.22% and 72.36%
Cell viability % ([2]; H-1299, 750 nM, 48 h, repeats, 0.75 µM): 70.74% and 81.49%
Cell viability % ([2]; H-1299, 1 uM, 48 h, repeats, 1 µM): 69.87% and 82.47%
Cell viability % ([2]; H-1299, 2.5 uM, 48 h, repeats, 2.5 µM): 66.9068% and 60.82%
Cell viability % ([2]; H-1299, 5 uM, 48 h, repeats, 5 µM): 53.26% and 57.69%
Cell viability % ([2]; H-1299, 7.5 uM, 48 h, repeats, 7.5 µM): 36.17% and 50.75%
Cell viability % ([2]; H-1299, 10 uM, 48 h, repeats, 10 µM): 38.48% and 47.35%
Cell viability % ([2]; H-1299, 15 uM, 48 h, repeats, 15 µM): 39.64% and 37.79%
Cell viability % ([2]; H-1299, 20 uM, 48 h, repeats, 20 µM): 32.04% and 28.82%
viability at 0.1 µM ([2]; Homo sapiens, NCI-H1299, 48 h, H-1299, 100 nM, repeats, read-out: Cell viability %): 77.6%
viability at 0.5 µM ([2]; Homo sapiens, NCI-H1299, 48 h, H-1299, 500 nM, repeats, read-out: Cell viability %): 71.5%
viability at 0.75 µM ([2]; Homo sapiens, NCI-H1299, 48 h, H-1299, 750 nM, repeats, read-out: Cell viability %): 74.1%
viability at 1 µM ([2]; Homo sapiens, NCI-H1299, 48 h, H-1299, 1 uM, repeats, read-out: Cell viability %): 72.4%
viability at 2.5 µM ([2]; Homo sapiens, NCI-H1299, 48 h, H-1299, 2.5 uM, repeats, read-out: Cell viability %): 73.2%
viability at 5 µM ([2]; Homo sapiens, NCI-H1299, 48 h, H-1299, 5 uM, repeats, read-out: Cell viability %): 53.2%
viability at 7.5 µM ([2]; Homo sapiens, NCI-H1299, 48 h, H-1299, 7.5 uM, repeats, read-out: Cell viability %): 42.3%
viability at 10 µM ([2]; Homo sapiens, NCI-H1299, 48 h, H-1299, 10 uM, repeats, read-out: Cell viability %): 45.5%
viability at 15 µM ([2]; Homo sapiens, NCI-H1299, 48 h, H-1299, 15 uM, repeats, read-out: Cell viability %): 39.8%
viability at 20 µM ([2]; Homo sapiens, NCI-H1299, 48 h, H-1299, 20 uM, repeats, read-out: Cell viability %): 28.6%
IC50 ([2]; Homo sapiens, NCI-H1299, MTT, 48 h): 8.94 µM
viability at 48 h, 0.5 µM ([3]; HF-P4, 500 nM): 120%
viability at 48 h, 0.75 µM ([3]; HF-P4, 750 nM): 100%
viability at 48 h, 1 µM ([3]; HF-P4, 1 uM): 107%
viability at 48 h, 5 µM ([3]; HF-P4, 5 uM): 104%
viability at 48 h, 7.5 µM ([3]; HF-P4, 7.5 uM): 84.4%
viability at 48 h, 10 µM ([3]; HF-P4, 10 uM): 83.1%
viability at 48 h, 15 µM ([3]; HF-P4, 15 uM): 69.4%
viability at 48 h, 20 µM ([3]; HF-P4, 20 uM): 60.3%
Cell viability % ([4]; HF-P4, 100 nM, 0.1 µM): 112.667% and 100.0956% and 124.6811%
Cell viability % ([4]; HF-P4, 500 nM, 0.5 µM): 121.1654% and 117.1851%
Cell viability % ([4]; HF-P4, 750 nM, 0.75 µM): 106.3799% and 108.6149%
Cell viability % ([4]; HF-P4, 1 uM, 1 µM): 107.7419% and 92.48%
Cell viability % ([4]; HF-P4, 2.5 uM, 2.5 µM): 91.9392% and 112.4492% and 91.41%
Cell viability % ([4]; HF-P4, 5 uM, 5 µM): 91.3% and 88.77%
Cell viability % ([4]; HF-P4, 7.5 uM, 7.5 µM): 87.79% and 98.14%
Cell viability % ([4]; HF-P4, 10 uM, 10 µM): 82.92% and 77.13%
Cell viability % ([4]; HF-P4, 15 uM, 15 µM): 82.13% and 69.58%
Cell viability % ([4]; HF-P4, 20 uM, 20 µM): 51.8655% and 56.81%
IC50 ([4]; Homo sapiens, MTT): > 20 µM
